Assay results: US20090012011A1, “Novel Compounds” (SmithKline Beecham Corporation, priority 2006, published 2009)

Tests used:
TRPV4 channel receptors [1] = molecular target: T1, TRPV4 channel receptors (Bos taurus, UniProt A0A8F4X677); assay: Ca2+ influx, Fura-2 fluorescence on FlexStation, bovine articular chondrocytes; type: cell-based
T1 construct: obtained using this method in bovine articular chondrocytes; endogenous in cells; host or cells: bovine articular chondrocytes
Excerpt: (§1) Ca^2+ influx mediated through TRPV4 channel receptors can be measured using articular chondrocytes from such species as, but not limited to, human, rat, canine, rabbit, monkey, and bovine, using standard techniques in the art such as, but not limited to, Fura-2 (Invitrogen/Molecular Probes, Eugene, Oreg.) fluorescence using a FlexStation (manufactured by Molecular Devices, Sunnyvale, Calif.). Table 1 lists biological data for several representative compounds obtained using this method in bovine articular chondrocytes.

TRPV4 channel receptors [2] = molecular target: T2, TRPV4 channel receptors (Homo sapiens, UniProt Q9HBA0); assay: Ca2+ influx, Fura-2 fluorescence on FlexStation, human articular chondrocytes; type: cell-based
T2 construct: obtained using this method in human articular chondrocytes; endogenous in cells; host or cells: human articular chondrocytes
Excerpt: as §1
Table 2 lists biological data for several representative compounds obtained using this method in human articular chondrocytes.

T2 sequence (Q9HBA0 whole entry): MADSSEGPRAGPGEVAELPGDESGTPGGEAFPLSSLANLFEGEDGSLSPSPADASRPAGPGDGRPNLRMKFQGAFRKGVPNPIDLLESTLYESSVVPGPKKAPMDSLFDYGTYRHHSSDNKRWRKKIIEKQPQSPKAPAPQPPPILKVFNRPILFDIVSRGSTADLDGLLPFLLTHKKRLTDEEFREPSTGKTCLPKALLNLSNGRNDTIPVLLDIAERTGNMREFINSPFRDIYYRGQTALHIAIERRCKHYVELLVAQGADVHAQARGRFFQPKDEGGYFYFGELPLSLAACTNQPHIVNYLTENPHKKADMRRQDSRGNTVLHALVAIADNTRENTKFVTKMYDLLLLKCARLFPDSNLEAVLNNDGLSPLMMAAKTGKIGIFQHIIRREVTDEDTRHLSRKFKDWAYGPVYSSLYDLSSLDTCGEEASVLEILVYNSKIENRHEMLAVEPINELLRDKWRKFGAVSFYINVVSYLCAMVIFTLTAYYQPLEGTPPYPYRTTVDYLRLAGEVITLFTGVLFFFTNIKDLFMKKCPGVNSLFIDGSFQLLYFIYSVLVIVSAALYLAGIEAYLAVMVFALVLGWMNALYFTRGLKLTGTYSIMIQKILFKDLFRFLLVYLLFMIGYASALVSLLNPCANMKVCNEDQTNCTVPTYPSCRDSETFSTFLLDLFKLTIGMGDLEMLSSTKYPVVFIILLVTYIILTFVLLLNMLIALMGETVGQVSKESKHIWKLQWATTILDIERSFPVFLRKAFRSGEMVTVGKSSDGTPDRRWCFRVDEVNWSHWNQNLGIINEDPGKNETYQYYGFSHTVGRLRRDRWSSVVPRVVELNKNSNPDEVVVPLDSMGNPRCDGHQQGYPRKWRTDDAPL
T1 sequence (A0A8F4X677 1-871): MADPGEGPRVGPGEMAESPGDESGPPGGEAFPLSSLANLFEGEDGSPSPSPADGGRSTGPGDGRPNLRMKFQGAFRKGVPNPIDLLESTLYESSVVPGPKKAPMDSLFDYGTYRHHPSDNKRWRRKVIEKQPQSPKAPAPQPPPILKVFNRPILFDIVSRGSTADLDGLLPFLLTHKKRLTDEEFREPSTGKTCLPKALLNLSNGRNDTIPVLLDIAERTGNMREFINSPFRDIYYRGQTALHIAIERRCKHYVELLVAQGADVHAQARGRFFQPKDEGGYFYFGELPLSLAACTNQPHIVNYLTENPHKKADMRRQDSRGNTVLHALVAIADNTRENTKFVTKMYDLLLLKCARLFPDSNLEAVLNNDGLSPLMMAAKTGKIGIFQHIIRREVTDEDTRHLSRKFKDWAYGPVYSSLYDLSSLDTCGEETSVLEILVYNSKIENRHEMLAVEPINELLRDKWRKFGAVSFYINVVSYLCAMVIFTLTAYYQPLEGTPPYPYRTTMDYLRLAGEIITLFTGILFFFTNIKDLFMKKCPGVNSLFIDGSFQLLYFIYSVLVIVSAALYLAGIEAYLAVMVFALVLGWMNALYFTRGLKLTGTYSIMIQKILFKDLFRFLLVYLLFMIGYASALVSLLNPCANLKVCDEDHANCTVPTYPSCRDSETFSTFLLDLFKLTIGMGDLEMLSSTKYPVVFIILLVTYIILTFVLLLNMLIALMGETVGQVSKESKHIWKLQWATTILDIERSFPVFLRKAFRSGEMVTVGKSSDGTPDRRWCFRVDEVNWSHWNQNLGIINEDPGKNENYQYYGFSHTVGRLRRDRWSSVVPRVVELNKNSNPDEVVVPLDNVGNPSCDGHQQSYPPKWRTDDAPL

Row | SMILES | EC50 (TRPV4 channel receptors [1]) [nM] | EC50 (TRPV4 channel receptors [2]) [nM]
1 | CC(C)C[C@H](NC(=O)c1cc2ccccc2s1)C(=O)NC[C@@H]1CN(S(=O)(=O)c2ccc(F)cc2Cl)C[C@@H]1O (single isomer, unassigned) [Example 2] | 70 to 100 | 100 to 1000
2 | CC(C)C[C@H](NC(=O)c1cc2ccccc2s1)C(=O)NC[C@H]1CN(S(=O)(=O)c2ccc(Cl)cc2Cl)C[C@H]1O (single isomer, unassigned) [Example 3] | 30 to 60 | 30 to 90
3 | CC(C)C[C@H](NC(=O)c1cc2ccccc2s1)C(=O)NC[C@@H]1CN(S(=O)(=O)c2ccc(F)cc2C(F)(F)F)C[C@@H]1O (single isomer, unassigned) [Example 6] | – | 1000 to 10000
